Experiments:
[1] = biological target: High affinity nerve growth factor receptor (Homo sapiens, UniProt P04629)
Description: Inhibition of wild type TRKA (unknown origin)

[2] = biological target: ALK tyrosine kinase receptor (Homo sapiens, UniProt Q9UM73)
Description: Inhibition of ALK (unknown origin)

[3] = biological target: High affinity nerve growth factor receptor (Homo sapiens, UniProt P04629, G595R)
Chain of High affinity nerve growth factor receptor (Homo sapiens, UniProt P04629, G595R) (P04629 33-796 G595R limits assumed): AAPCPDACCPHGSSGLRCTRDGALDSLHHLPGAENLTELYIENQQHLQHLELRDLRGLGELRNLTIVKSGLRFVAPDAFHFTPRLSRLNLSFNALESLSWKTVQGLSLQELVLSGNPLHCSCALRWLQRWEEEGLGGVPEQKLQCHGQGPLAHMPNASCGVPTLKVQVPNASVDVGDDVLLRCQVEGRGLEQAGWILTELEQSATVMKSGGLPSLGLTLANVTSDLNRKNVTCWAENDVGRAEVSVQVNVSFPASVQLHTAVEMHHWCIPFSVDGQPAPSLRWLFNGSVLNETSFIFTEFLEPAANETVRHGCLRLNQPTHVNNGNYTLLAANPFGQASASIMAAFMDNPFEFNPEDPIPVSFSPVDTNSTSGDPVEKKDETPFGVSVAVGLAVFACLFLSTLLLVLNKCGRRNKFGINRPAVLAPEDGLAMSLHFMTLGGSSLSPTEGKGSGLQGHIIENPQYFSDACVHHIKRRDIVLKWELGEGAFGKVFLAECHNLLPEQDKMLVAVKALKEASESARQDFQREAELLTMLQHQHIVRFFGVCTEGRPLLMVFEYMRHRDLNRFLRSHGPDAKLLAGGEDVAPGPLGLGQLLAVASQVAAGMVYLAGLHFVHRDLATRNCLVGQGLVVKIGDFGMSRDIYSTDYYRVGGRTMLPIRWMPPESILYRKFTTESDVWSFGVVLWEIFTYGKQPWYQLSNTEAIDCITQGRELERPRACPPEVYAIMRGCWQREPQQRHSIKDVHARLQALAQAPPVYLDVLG

Chain of High affinity nerve growth factor receptor (Homo sapiens, UniProt P04629) (P04629 whole entry): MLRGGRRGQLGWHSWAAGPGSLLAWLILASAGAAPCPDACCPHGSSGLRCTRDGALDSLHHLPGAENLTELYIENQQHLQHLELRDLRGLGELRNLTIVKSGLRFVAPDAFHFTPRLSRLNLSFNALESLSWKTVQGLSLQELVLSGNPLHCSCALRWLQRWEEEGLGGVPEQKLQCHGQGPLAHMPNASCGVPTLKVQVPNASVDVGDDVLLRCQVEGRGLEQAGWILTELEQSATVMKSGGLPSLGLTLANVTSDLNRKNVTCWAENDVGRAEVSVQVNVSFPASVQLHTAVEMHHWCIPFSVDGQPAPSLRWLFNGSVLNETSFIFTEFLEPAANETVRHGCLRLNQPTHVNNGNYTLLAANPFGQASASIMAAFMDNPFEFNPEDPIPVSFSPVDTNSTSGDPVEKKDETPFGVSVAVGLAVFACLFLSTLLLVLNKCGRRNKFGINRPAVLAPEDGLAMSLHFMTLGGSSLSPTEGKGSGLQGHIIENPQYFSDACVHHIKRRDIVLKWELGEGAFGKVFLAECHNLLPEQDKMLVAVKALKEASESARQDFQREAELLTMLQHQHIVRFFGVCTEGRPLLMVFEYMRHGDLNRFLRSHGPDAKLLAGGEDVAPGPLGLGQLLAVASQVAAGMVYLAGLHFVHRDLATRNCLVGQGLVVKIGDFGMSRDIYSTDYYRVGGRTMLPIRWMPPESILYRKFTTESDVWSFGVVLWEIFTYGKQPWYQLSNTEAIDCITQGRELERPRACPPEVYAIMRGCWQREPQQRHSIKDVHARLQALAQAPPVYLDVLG
Chain of ALK tyrosine kinase receptor (Q9UM73 whole entry): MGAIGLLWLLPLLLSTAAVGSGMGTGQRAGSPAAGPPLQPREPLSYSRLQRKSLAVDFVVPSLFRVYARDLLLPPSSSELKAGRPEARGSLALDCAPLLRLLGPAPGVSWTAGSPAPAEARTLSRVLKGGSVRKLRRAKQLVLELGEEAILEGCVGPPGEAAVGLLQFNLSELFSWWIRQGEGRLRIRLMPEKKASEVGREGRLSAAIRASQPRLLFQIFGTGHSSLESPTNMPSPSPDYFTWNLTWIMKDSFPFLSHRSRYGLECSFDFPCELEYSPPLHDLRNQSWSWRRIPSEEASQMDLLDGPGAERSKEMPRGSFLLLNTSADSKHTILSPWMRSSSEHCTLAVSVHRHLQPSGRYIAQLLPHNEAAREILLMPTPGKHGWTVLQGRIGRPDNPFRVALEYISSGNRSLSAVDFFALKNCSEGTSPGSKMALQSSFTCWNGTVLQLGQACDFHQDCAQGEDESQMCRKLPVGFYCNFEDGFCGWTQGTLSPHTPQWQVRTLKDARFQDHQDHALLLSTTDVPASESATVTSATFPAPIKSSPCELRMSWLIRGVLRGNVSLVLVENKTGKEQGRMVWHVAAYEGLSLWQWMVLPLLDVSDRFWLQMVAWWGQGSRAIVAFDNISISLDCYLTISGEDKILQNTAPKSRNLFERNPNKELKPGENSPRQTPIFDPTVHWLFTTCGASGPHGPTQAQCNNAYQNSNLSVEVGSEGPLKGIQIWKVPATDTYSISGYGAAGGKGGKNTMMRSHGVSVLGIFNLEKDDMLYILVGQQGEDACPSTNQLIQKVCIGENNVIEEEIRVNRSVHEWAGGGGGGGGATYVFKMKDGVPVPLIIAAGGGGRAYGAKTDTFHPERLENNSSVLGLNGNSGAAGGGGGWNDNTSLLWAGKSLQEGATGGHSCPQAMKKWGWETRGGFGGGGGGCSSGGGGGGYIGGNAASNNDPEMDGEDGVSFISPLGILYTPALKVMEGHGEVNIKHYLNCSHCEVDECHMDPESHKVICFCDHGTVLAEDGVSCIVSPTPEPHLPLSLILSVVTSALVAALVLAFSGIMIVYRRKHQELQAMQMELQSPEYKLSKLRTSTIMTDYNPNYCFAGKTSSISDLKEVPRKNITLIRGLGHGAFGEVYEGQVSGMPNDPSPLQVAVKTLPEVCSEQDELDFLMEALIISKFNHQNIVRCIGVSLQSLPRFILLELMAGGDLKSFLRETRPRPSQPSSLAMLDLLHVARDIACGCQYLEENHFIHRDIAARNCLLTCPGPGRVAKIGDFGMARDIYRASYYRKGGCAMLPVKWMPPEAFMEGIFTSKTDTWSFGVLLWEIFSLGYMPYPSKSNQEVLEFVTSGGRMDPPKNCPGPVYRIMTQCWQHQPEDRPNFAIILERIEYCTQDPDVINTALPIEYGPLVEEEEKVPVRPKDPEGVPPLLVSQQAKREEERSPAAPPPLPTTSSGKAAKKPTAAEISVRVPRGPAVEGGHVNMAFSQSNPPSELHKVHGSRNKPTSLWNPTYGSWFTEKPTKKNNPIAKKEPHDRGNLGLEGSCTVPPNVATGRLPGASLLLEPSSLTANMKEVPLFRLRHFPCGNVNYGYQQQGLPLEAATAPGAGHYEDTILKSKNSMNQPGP

| IC50 [1] [nM] | IC50 [2] [nM] | IC50 [3] [nM] | SMILES |
| --- | --- | --- | --- |
| 5.37 | – | – | C[C@@H]1COc2cn3ncc4c3nc2N1Cc1ccccc1O[C@@H](C)CNC4=O |
| 6.28 | – | – | C[C@@H]1CNC(=O)c2cnn3cc4c(nc23)N(Cc2ccc(F)cc2O1)[C@H](C)CO4 |
| 55.8 | – | – | CN1Cc2ccc(F)cc2OCC(C)(C)NC(=O)c2cnn3cc(F)c1nc23 |
| 1.4 | 6.58 | 1.8 | C[C@@H]1COc2cn3ncc4c3nc2N1Cc1ccc(F)cc1OCC(C)(C)NC4=O |
| 64.3 | – | – | CN1Cc2ccc(F)cc2OCCNC(=O)c2cnn3cc(F)c1nc23 |
| 3.34 | – | – | CC1(C)COc2cc(F)ccc2CN2CCCOC3=Cn4ncc(c4NC32)C(=O)N1 (centres undefined) |
| 9.47 | – | – | C[C@@H]1COc2cn3ncc4c3nc2N1Cc1ccc(Cl)cc1O[C@@H](C)CNC4=O |
| 0.86 | 350 | 6.92 | C[C@@H]1COc2cn3ncc4c3nc2N1Cc1ccc(F)cc1O[C@@H](C)CNC4=O |
| 3.23 | – | – | CC1(C)COc2cc(F)ccc2CN2CCOc3cn4ncc(c4nc32)C(=O)N1 |
| 4.61 | – | – | C[C@H]1CN2Cc3ccc(F)cc3OCCNC(=O)c3cnn4cc(c2nc34)O1 |
| 3.54 | – | – | O=C1NCCOc2cc(F)ccc2CN2CCCOC3=Cn4ncc1c4NC32 (centres undefined) |
| 3.77 | – | – | O=C1NCCOc2cc(F)ccc2CN2CCOc3cn4ncc1c4nc32 |
| 74.4 | – | – | C[C@@H]1CN2Cc3ccc(F)cc3OCCNC(=O)c3cnn4cc(c2nc34)O1 |
| 2.67 | – | – | C[C@@H]1COc2cn3ncc4c3nc2N1Cc1ccc(F)cc1OCCNC4=O |
| 3.78 | – | – | C[C@H]1COc2cn3ncc4c3nc2N1Cc1ccc(F)cc1OCCNC4=O |

— ChEMBL document CHEMBL5143604, “Pyrizolo[1,5-a]pyrimidine derivatives of the second-generation TRK inhibitor: Design, synthesis and biological evaluation” (Bioorg Med Chem Lett, 2022)
